Reference: the NIST ThermoML archive (doi:10.1021/acs.jced.6b00197)
± gives the expanded uncertainty stated by the source.

How the values were obtained:
[1] = Liquid; for mass density: 293.15 K, 101.33 kPa, Pycnometric method; for Normal boiling temperature: Ebulliometric method (Recirculating still)
[2] = Boiling temperature at pressure P; settings: Liquid, Ebulliometric method (Recirculating still)
[3] = refractive index (Na D-line) (dimensionless); settings: 293.25 K; 101.33 kPa; Liquid; Standard Abbe refractometry

For `CC(C)CCO` [3-methylbutan-1-ol], the mass density [1] was 810 ± 8 kg/m3, the Normal boiling temperature [1] was 131.30 ± 0.2 °C and the “Boiling temperature at pressure P” value ([2]; 5 kPa) was 62.70 ± 0.26 °C. The “Boiling temperature at pressure P” value ([2]; 10 kPa) was 75.77 ± 0.21 °C, the “Boiling temperature at pressure P” value ([2]; 19.99 kPa) was 90.18 ± 0.16 °C and the “Boiling temperature at pressure P” value ([2]; 40.01 kPa) was 106.36 ± 0.15 °C. For the same compound, the “Boiling temperature at pressure P” value ([2]; 49.99 kPa) was 111.97 ± 0.15 °C, the “Boiling temperature at pressure P” value ([2]; 59.99 kPa) was 116.67 ± 0.15 °C and the “Boiling temperature at pressure P” value ([2]; 79.99 kPa) was 124.46 ± 0.14 °C. The “Boiling temperature at pressure P” value ([2]; 100 kPa) was 130.86 ± 0.14 °C, the “Boiling temperature at pressure P” value ([2]; 101.31 kPa) was 131.21 ± 0.14 °C and the “Boiling temperature at pressure P” value ([2]; 120 kPa) was 136.04 ± 0.14 °C. The “Boiling temperature at pressure P” value ([2]; 139.99 kPa) was 141.06 ± 0.14 °C, the “Boiling temperature at pressure P” value ([2]; 159.99 kPa) was 145.36 ± 0.14 °C and the “Boiling temperature at pressure P” value ([2]; 180.01 kPa) was 149.28 ± 0.14 °C. For the same compound, the “Boiling temperature at pressure P” value ([2]; 200 kPa) was 152.86 ± 0.14 °C and the refractive index [3] was 1.4067 ± 0.0008.

With `CC(=O)OCCC(C)C` [3-methylbutyl ethanoate] the mass density [1] was 873 ± 8 kg/m3, the Normal boiling temperature [1] was 142.09 ± 0.2 °C and the “Boiling temperature at pressure P” value ([2]; 4.98 kPa) was 59.86 ± 0.29 °C. The “Boiling temperature at pressure P” value ([2]; 10.05 kPa) was 75.04 ± 0.23 °C, the “Boiling temperature at pressure P” value ([2]; 19.88 kPa) was 92.10 ± 0.17 °C and the “Boiling temperature at pressure P” value ([2]; 39.98 kPa) was 111.42 ± 0.16 °C. The “Boiling temperature at pressure P” value ([2]; 50.03 kPa) was 118.20 ± 0.15 °C, the “Boiling temperature at pressure P” value ([2]; 60.02 kPa) was 123.93 ± 0.15 °C and the “Boiling temperature at pressure P” value ([2]; 79.97 kPa) was 133.43 ± 0.15 °C. For the same compound, the “Boiling temperature at pressure P” value ([2]; 99.82 kPa) was 141.17 ± 0.15 °C, the “Boiling temperature at pressure P” value ([2]; 101.09 kPa) was 141.63 ± 0.15 °C and the “Boiling temperature at pressure P” value ([2]; 120.12 kPa) was 147.90 ± 0.15 °C. The “Boiling temperature at pressure P” value ([2]; 140.02 kPa) was 153.64 ± 0.15 °C, the “Boiling temperature at pressure P” value ([2]; 159.98 kPa) was 158.77 ± 0.15 °C and the “Boiling temperature at pressure P” value ([2]; 179.92 kPa) was 163.38 ± 0.15 °C. For the same compound, the “Boiling temperature at pressure P” value ([2]; 199.94 kPa) was 167.59 ± 0.15 °C and the refractive index [3] was 1.4008 ± 0.0008.
